According to US9566282B2, “Methods for identifying and validating selective anti-cancer stem cell agents” (MCMASTER UNIVERSITY, priority 2011, dated 2017):
Counter-ions that a name gives are not always drawn.

Legend:
[1] = system: v1O4 cells (v1H9-Oct4-GFP); experiment: Library screen on variant neoplastic stem cells (LOP and cell count); format: cell-based, human; conditions: for hit: loss of pluripotency and reduction in cell counts: 10 μM or 1 μM, 72 hours, Z-score more than 3 SD
Experimental: Compounds that reduced cell counts below 100 were classified as highly toxic and not considered as useful.
Briefly, v1O4 cells were seeded into Matrigel-coated 96 well plates (5000 cells/well) containing mouse embryonic fibroblast conditioned media (MEFCM) supplemented with 8 ng/mL bFGF, and treated for 72 hours with compounds dissolved in DMSO. The final concentration of each compound used in treatment was either 10 μM or 1 μM (n=3). Control wells were treated with 0.1% DMSO (low control) or 100 ng/ml BMP4 (high control to induce LOP). At the end of 72 hours, cells were fixed, stained with Hoechst and imaged by automated microscopy. GFP intensity and Hoechst signal were quantified as measures of LOP and cell count, respectively, and compounds with a Z-score of more than 3 standard deviations from the mean for reduced cell count and LOP were chosen as hits.

[2] = system: v1O4 cells versus H9 cells; experiment: Dose-response cell counts, v1O4 versus H9 (selective-activity potency ratio); format: cell-based, human; conditions: single 10 μM concentration point; selective at other concentrations
Experimental: The first step in the screening process, the primary screen, is shown in FIG. 21, step 1 and is also described in FIG. 17 and Example 13. […] These compounds then undergo a further set of analysis described in FIG. 21, step 2. […] 8- or 10-point dilutions for each compound are tested on variant neoplastic stem cells (V1O4) and normal stem cells (H9 cells) cells to generate dose-response curves. […] Dose response data were fit with a 4-parameter Hill equation to derive EC50, slopes, min and max values using IDBS ActivityBase software. The EC50 values are then used to calculate a selective-activity potency ratio (H9 EC50/v1O4 EC50). […] The efficacy of each compound can also be quantified by analysis if the derived min value from the 4-parameter Hill fit. An alternative metric for selective activity is an efficacy comparison. Selective EFFICACY=H9−FittedMin−v1O4−FittedMin.
Selectivity activity ratios [EC50 (v1O4)/EC50 (H9)] were calculated as discussed in Example 15 for a number of compounds screened using the methods described herein.

[3] = system: normal HSCs / HSPC (CB lin-); experiment: Methylcellulose colony-forming assay, normal HSC/HSPC; format: cell-based, human; conditions: for HSPC CFU potential: 24 h treatment before plating, 0.1, 1, 10 μM tested
Experimental: Normal HSCs and progenitors were sourced from either mobilized peripheral blood or umbilical cord blood of health patients.
Patient HSPC and AML samples were treated with compound or DMSO-vehicle (0.1%) for 24 h prior to CFU plating or xenotransplantation studies.
AML patient or CB lin− cells were cultured 24 hours in the presence of compound or DMSO-vehicle (0.1%) control. […] CB lin− cells were plated at 1000 cells/mL in Methocult GF H4434 (Stem Cell Technologies). Colonies were scored after 14 days of culture using standard morphological criteria.

[4] = system: neoplastic hPSCs (v1H9-Oct4-GFP); experiment: Flow cytometry of Oct4+ cells in neoplastic hPSC; format: cell-based, human; conditions: three concentrations; compared with BMP4 differentiation controls
AML LSCs = experiment: Xenotransplantation of compound-treated AML cells into NSG mice; format: in vivo, human; conditions: 10 μM, cells treated 24 h before transplantation
Experimental: (§1) NOD.Cg-Prkdc^scid ll2rg^tm1Wjl/SzJ adult mice (NSG) were sub-lethally irradiated with 315 rads 24 hours prior transplantation. 0.8-1.0×10^7 AML MNCs or 1.5-1.8×10^5 CB lin− hematopoietic cells treated with compound or DMSO-vehicle for 24 h were injected via tail vein (IV). After 6-10 weeks, animals were culled, and the BM and spleen were analyzed for the presence of human cells by flow cytometry (LSRII, BD) and data was analyzed using FlowJo software (Tree Star Inc). For secondary HSPC transplants, equal number of engrafted human cells from CB lin− transplants were injected IV in adult irradiated NSG mice as described for primary transplants.
(§2) To delineate whether the inhibition of AML-blasts detected in vitro was due to the compounds affecting the neoplastic stem cell compartment, xenotransplantation studies (Dick, 2008) that functionally define LSCs and hematopoietic stem cells (HSCs) were conducted (FIG. 12).

[5] = system: primary AML cells (AML blast CFU); experiment: Methylcellulose blast-CFU assay, primary AML cells; format: cell-based, human; conditions: for AML-blast CFU potential / formation: 24 h treatment before plating, salinomycin at 1 μM and 10 μM
Excerpt: (§3) Due to the bioavailability of dopamine in fetal bovine serum (FBS) (Little et al., 2002), serum-free conditions were employed to assess the role of DRs in AML. […] DR D2-family and D1-family exert opposing actions on intracellular signaling leading to differential biological effects (Self et al., 1996).

[6] = system: HL-60, OCI-AML2 and OCI-AML3; experiment: Cytotoxicity of DR agonists/antagonists against AML cell lines; format: cell-based; conditions: 72 h; CLOZ at higher concentrations
Experimental: (§4) All three lines are leukemic cell lines. HL-60 was derived from promyelocytic AML whereas MV 4-11 and OCI-AML3 are representative of AML. Each compound was incubated with the cells for 72 h. The control was DMSO (ie the vehicle used for the compound) for 72 h. Each condition had three replicates.
A series of dopamine receptor agonists, D3-antagonists, DR1 & 5-antagonists and multi-receptor antagonists were tested for cytotoxicity against three AML cell lines HL-60, OCI-AML2 and OCI-AML3. Testing was performed as set out in Example 1.

AML-OCI2 and AML-OCI3 [7] = experiment: Volumetric cell counts of AML lines treated with DR antagonists or agonists; format: cell-based, human; conditions: 72 h, serum-free conditions
Experimental: The number of AML-OCI2 and AML-OCI3 cells present after 72 h treatment with DR antagonists (FIG. 16b) and agonist (FIG. 16c-d) were counted by measuring the number of events within a fixed volume following the grating strategy defined by forward scatter and side scatter clustering, 7AAD− and Hoechst+.
as §3

neoplastic hPSCs [8] = experiment: p53 and p21 staining of neoplastic hPSC; format: cell-based, human; conditions: 24 h; compounds at 10 μM
Excerpt: Antibodies used for immunocytochemistry were the following: Oct3/4 (BD Trunsduction Laboratories, cat#611203), Sox2 (R&D, cat#AF2018). To detect human hematopoietic cells, Pacific Blue−, PE−, APC− or FITC labeled anti-human CD45 was used (BD Biosciences). FITC anti-CD33, PE anti-CD13, FITC anti-CD41a, FITC anti-HLA DR, and PE anti-CD19 antibodies were obtained from BD Pharmingen. PE anti-CD14, PE anti-CD15 and PE anti-GlyA were acquired from Immunotech Beckman Coulter. To determine pluripotency, PE anti-SSEA3 (BD Biosciences) and PE- or AlexaFluor488 anti-Oct4 (BD Biosciences). Rabbit anti-human dopamine receptor antibodies; DRD1 (Cat#324390), DRD2 (Cat#324393), DRD3 (Cat#324402), DRD4 (Cat#324405) and DRD5 (Cat#324408) were sourced from EMD Chemical. Anti-rabbit Alexa-Fluor-488 (Molecular Probes) was used as the secondary antibody. Primary anti-p53 (Cat#2527) and anti-p21 (Cat#2947) rabbit IgG sourced from Cell Signaling Technology were used to stain fixed and permeabilized cells. Anti-rabbit alexa-Fluor-546 (Molecular Probes) was used as the secondary antibody. For breast tumor staining, APC anti-CD44 and PE-CD24 were sourced from BD Pharmingen.

[9] = system: HL-60, MV4-11 and OCI-AML3; experiment: Cytotoxicity to leukemic cell lines (normalized cell number, 72 h); format: cell-based; conditions: 10 μM
Experimental: as §4
The dopamine receptor antagonist and phenothiazine-related compound chlorpromazine was also investigated for effects on the AML cell lines HL-60, MV4-11 and OCI-AML3. Testing was performed as set out in Example 1.

AML-OCI2 and AML-OCI3 [10] = experiment: Induction of apoptosis in AML cancer cell lines (normal nuclei); format: cell-based, human
neoplastic hPSCs [11] = experiment: TaqMan Low-Density Array-qPCR of differentiation genes; format: cell-based, human; conditions: thioridazine-treated neoplastic hPSCs; >2 fold increase
Experimental: Cells in specific conditions were collected and RNA was extracted by using RNeasy kit (Qiagen), complementary DNA (cDNA) generation by using SuperScript III® cDNA synthesis kit (Invitrogen), pre-amplification and TaqMan® array reaction (Applied Biosystems) were performed according to manufacturer's instructions. The gene expression profile for each treated cell population was analyzed using TaqMan® Stem Cell Pluripotency Array Card on ViiA 7 Real-Time PCR System (Applied Biosystems). Each reaction sample was dispensed into loading wells on the array card and centrifuged twice at 336×g for 1 min each time, sealed, and placed in the thermal cycler. The following cycling conditions were used for all array card applications: 45° C. for 10 min, 94° C. for 10 min, and 40 cycles of 94° C. for 30 s followed by 60° C. for 1 min. Array data were normalized to 18S RNA and GAPDH and comparisons were performed using data analysis 2.0 software (Applied Biosystems).
Rapid accumulation of the cell stress marker p53 (FIG. 10d) and its transcriptional target p21 (FIG. 10e) were used to further distinguish differentiation induction from cellular toxicity.

HSPCs / HSCs (CB lin-) = conditions: in vivo
Experimental: as §1, §2

[12] = sorted patient AML cells, 24 h treatment

`CN1CCN(CCCN2c3ccccc3Sc3ccc(C(F)(F)F)cc32)CC1` [trifluoperazine] was tested, and the “hit: loss of pluripotency and reduction in cell counts” value [1] was “identified as hits”.
In the case of `CCCCc1ccc2[nH]c(NC(=O)OC)nc2c1` [parbendazole], the “selectivity for cancer stem cells at a single concentration point” value (shortened to “selectivity for cancer stem cells”) [2] is reported as “would have not be considered selective for cancer stem cells”.
With `Nc1nc2nn[nH]c2c(=O)[nH]1` [8-azaguanine] the “selectivity for cancer stem cells” value [2] was “would have not be considered selective for cancer stem cells”.
For `OC(c1cc(C(F)(F)F)nc2c(C(F)(F)F)cccc12)C1CCCCN1` (stereo not shown) [mefloquine], the “HSPC CFU potential” value [3] was “little effect on HSPC CFU potential”, the “cell number and levels of Oct4 in neoplastic hPSCs” value [4] was “reductions in cell number and the levels of Oct4” and the “AML LSC capacity (CD45+ CD33+ blast engraftment)” value (AML LSCs) was “ineffective in reducing AML LSC capacity”. For the same compound, the “AML-blast CFU potential / formation” value [5] was “reduced AML-blast CFU formation”.
In the case of `Cn1cc(C2=C(c3cn(CCCSC(=N)N)c4ccccc34)C(=O)NC2=O)c2ccccc21` [31-8220], the “selectivity for cancer stem cells” value [2] is reported as “would have not be considered selective for cancer stem cells”.
`CN1CCN(C2=Nc3cc(Cl)ccc3Nc3ccccc32)CC1` [clozapine, Clozapine] was tested, and the “cytotoxicity of AML cell lines” value [6] was “significant effect on cytotoxicity”.
For `OCCN1CCN(CCCN2c3ccccc3Sc3ccc(Cl)cc32)CC1` [perphenazine], the “hit: loss of pluripotency and reduction in cell counts” value [1] was “identified as hits”.
For `Br.CCCN(CCC)[C@@H]1CCc2ccc(O)cc2C1` [7OH-DPAT, R(+)-7-Hydroxy-DPAT hydrobromide], the “number of AML cells” value (AML-OCI2 and AML-OCI3 [7]) was “increased the number of AML cells”.
With `COc1cc([C@@H]2c3cc4c(cc3[C@@H](O[C@@H]3O[C@@H]5CO[C@@H](C)O[C@H]5[C@H](O)[C@H]3O)[C@H]3COC(=O)[C@H]23)OCO4)cc(OC)c1O` [etoposide] the “accumulation of p53 and p21” value (neoplastic hPSCs [8]) was “high levels of p53 and p21”.
`CN1CCN(CCCN2c3ccccc3Sc3ccc(Cl)cc32)CC1` [prochlorperazine] was tested, and the “hit: loss of pluripotency and reduction in cell counts” value [1] was “identified as hits”.
With `CN(C)CCCN1c2ccccc2Sc2ccc(Cl)cc21` [chlorpromazine, Chlorpromazine hydrochloride] the “number of AML cells” value (AML-OCI2 and AML-OCI3 [7]) was “reduced the number of AML cells”, the “normalized cell number / toxicity” value [9] was “toxic to AML cell lines” and the “cytotoxicity of AML cell lines” value [6] was “significant effect on cytotoxicity”. The “hit: loss of pluripotency and reduction in cell counts” value [1] was “did not have a comparable effect on v1O4 cells”.
In the case of `OCCN1CCN(CCCN2c3ccccc3Sc3ccc(C(F)(F)F)cc32)CC1` [fluphenazine], the “hit: loss of pluripotency and reduction in cell counts” value [1] is reported as “identified as hits”.
In the case of `CSc1ccc2c(c1)N(CCC1CCCCN1C)c1ccccc1S2` (racemic) [thioridazine, 10-{2-[(RS)-1-Methylpiperidin-2-yl]ethyl}-2-methylsulfanylphenothiazine], the “number of AML cells” value (AML-OCI2 and AML-OCI3 [7]) is reported as “reduced the number of AML cells”, the “colony forming potential of normal HSCs” value ([3]; 10 μM, DMSO control about 100, at least 14 days) is reported as “about 66 total colonies” and the “HSPC CFU potential” value [3] is reported as “little effect on HSPC CFU potential”. For the same compound, the “induction of apoptosis / cell death” value (AML-OCI2 and AML-OCI3 [10]) was “exerts its effects on these cell lines through cell death”, the “normalized cell number / toxicity” value [9] was “reduced to almost zero” and the “cytotoxicity of AML cell lines” value [6] was “significant effect on cytotoxicity”. For the same compound, the “cell number and levels of Oct4 in neoplastic hPSCs” value [4] was “reduce levels of Oct4 below BMP4 differentiation controls”, the “hit: loss of pluripotency and reduction in cell counts” value [1] was “identified as a hit” and the “signs of cell stress/death (Hoechst nuclear stain)” value ([1]; 10 μM, 3-day treatment) was “less signs of cell stress/death than cells treated with thiostrepton”. For the same compound, the differentiation-associated genes upregulated (neoplastic hPSCs [11]) was 21 of 50, the “AML LSC capacity (CD45+ CD33+ blast engraftment)” value (AML LSCs) was “significantly reduce leukemic disease-initiating AML LSCs” and the “accumulation of p53 and p21” value (neoplastic hPSCs [8]) was “no accumulation of p53 or p21”. For the same compound, the HSC self-renewal (HSPCs / HSCs (CB lin-)) was “did not affect HSC self-renewal”, the “number of AML CFU blast colonies” value ([5]; 10 μM, control about 22, at least 14 days) was 1.6 blast colonies and the “AML-blast CFU potential / formation” value [5] was “reduced AML-blast CFU formation”. For the same compound, the “blast-CFU generation, DR+ subfraction” value [5, 12] was “reduction in blast-CFU generation” and the “blast-CFU generation, DR− subfraction” value [5, 12] was “no reduction”.
For `CC[C@@H](C(=O)[C@@H](C)[C@@H](O)[C@H](C)[C@@H]1O[C@@H]([C@@H](CC)C(=O)O)CC[C@@H]1C)[C@H]1O[C@]2(C=C[C@@H](O)[C@]3(CC[C@@](C)([C@H]4CC[C@](O)(CC)[C@H](C)O4)O3)O2)[C@H](C)C[C@@H]1C` [salinomycin], the “HSPC CFU potential” value [3] was “reduced HSPC CFU potential over all doses tested” and the “AML-blast CFU potential / formation” value [5] was “reduced AML-blast CFU potential”.
“BMP4: positive control that induces differentiation / loss of pluripotency, 100 ng/ml” was tested, and the “accumulation of p53 and p21” value (neoplastic hPSCs [8]) was “no accumulation of p53 or p21”.
For `CN(C)CCCN1c2ccccc2Sc2ccc(C(F)(F)F)cc21` [triflupromazine], the “hit: loss of pluripotency and reduction in cell counts” value [1] was “identified as hits”.
With `Oc1cc2c(cc1O)[C@@H](c1ccccc1)CNCC2` [SKF38393, (R)-(+)-SKF-38393 hydrochloride] the “number of AML cells” value (AML-OCI2 and AML-OCI3 [7]) was “significant reduction in AML cell number”.
